Molecular target: T1, human M4 receptor (Homo sapiens, UniProt P08173)
T1 construct: expressed in transfected cells; host or cells: CHO cells
T1 sequence (P08173 1-479): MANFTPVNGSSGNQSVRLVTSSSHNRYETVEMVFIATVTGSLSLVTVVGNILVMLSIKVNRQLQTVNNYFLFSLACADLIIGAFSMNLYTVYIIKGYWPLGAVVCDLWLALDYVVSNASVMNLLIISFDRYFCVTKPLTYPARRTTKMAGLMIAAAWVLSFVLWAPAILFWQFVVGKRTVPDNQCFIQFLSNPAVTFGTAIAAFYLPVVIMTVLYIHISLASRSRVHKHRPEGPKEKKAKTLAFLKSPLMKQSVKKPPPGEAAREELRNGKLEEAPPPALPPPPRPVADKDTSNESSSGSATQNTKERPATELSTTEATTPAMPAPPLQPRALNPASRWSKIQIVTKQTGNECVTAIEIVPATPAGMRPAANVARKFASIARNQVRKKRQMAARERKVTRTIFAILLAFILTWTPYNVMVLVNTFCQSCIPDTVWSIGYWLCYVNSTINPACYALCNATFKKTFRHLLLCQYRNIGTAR
Experiment: Radioligand ([3H]N-methylscopolamine) binding assay, membranes from CHO cells expressing human M4 receptor
Conditions: Ki against human M4 receptor; membranes from CHO cells; tritiated N-methylscopolamine 1.5 nM; read-out: K
Method in brief: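 Ki values derive from displacement of tritiated N-methylscopolamine (1.5 nM) from human M4 receptor in CHO membranes. Membranes, radioligand and twelve-point compound series were incubated together at 37 °C for 90 minutes in pH 7.4 HEPES/NaCl/MgCl2/EDTA buffer. Rapid vacuum filtration over polyethylenimine-pretreated filters was followed by radioactivity counting.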

Ki	Structure (SMILES)
10 to 100 nM	C[C@@H]1CN(c2cnc(C(F)(F)F)cn2)C[C@H](C)N1C(=O)OC1CC2(C1)CN(Cc1ccc(F)cc1)C2 [Compound 399, 2-[(4-fluorophenyl)methyl]-2-azaspiro[3.3]heptan-6-yl (2R,6S)-2,6-dimethyl-4-[5-(trifluoromethyl)pyrazin-2-yl]piperazine-1-carboxylate]
10 to 100 nM	C[C@@H]1CN(c2ncc(Cl)cn2)C[C@H](C)N1C(=O)OC1CC2(C1)CN(Cc1ccccc1)C2 [Compound 278, 2-benzyl-2-azaspiro[3.3]heptan-6-yl (2R,6S)-4-(5-chloropyrimidin-2-yl)-2,6-dimethylpiperazine-1-carboxylate]
10 to 100 nM	C[C@@H]1CN(c2ncc(C(F)(F)F)cn2)C[C@H](C)N1C(=O)NC1CC2(C1)CN(Cc1ccccc1O)C2 [Compound 337, (2R,6S)-N-{2-[(2-hydroxyphenyl)methyl]-2-azaspiro[3.3]heptan-6-yl}-2,6-dimethyl-4-[5-(trifluoromethyl)pyrimidin-2-yl]piperazine-1-carboxamide]
10 to 100 nM	C[C@@H]1CN(c2ncc(OC(F)F)cn2)C[C@H](C)N1C(=O)NC1CC2(C1)CN(Cc1ccccc1)C2 [Compound 247, (2R,6S)-N-{2-benzyl-2-azaspiro[3.3]heptan-6-yl}-4-[5-(difluoromethoxy)pyrimidin-2-yl]-2,6-dimethylpiperazine-1-carboxamide]
< 10 nM	C[C@@H]1CN(c2nc3cc(C(F)(F)F)cnc3s2)C[C@H](C)N1C(=O)OC1CC2(C1)CN(Cc1ccccc1)C2 [Compound 365, 2-benzyl-2-azaspiro[3.3]heptan-6-yl (2R,6S)-2,6-dimethyl-4-[6-(trifluoromethyl)-[1,3]thiazolo[5,4-b]pyridin-2-yl]piperazine-1-carboxylate]
100 to 1000 nM	C[C@@H]1CN(c2ncc(C(F)(F)F)cn2)C[C@H](C)N1C(=O)NC1CC2(C1)CN(Cc1ccncc1)C2 [Compound 317, (2R,6S)-2,6-dimethyl-N-[2-(pyridin-4-ylmethyl)-2-azaspiro[3.3]heptan-6-yl]-4-[5-(trifluoromethyl)pyrimidin-2-yl]piperazine-1-carboxamide]
< 10 nM	C[C@@H]1CN(c2cc(F)c(F)c(F)c2)C[C@H](C)N1C(=O)NC1CC2(C1)CN(Cc1ccccc1)C2 [Compound 45, (2R,6S)-N-{2-benzyl-2-azaspiro[3.3]heptan-6-yl}-2,6-dimethyl-4-(3,4,5-trifluroophenyl)piperazine-1-carboxamide]
10 to 100 nM	C[C@@H]1CN(c2ncc(C#N)cn2)C[C@H](C)N1C(=O)OC1CC2(C1)CN(Cc1ccc(Cl)cc1)C2 [Compound 475, 2-[(4-chlorophenyl)methyl]-2-azaspiro[3.3]heptan-6-yl (2R,6S)-4-(5-cyanopyrimidin-2-yl)-2,6-dimethylpiperazine-1-carboxylate]
< 10 nM	C[C@H]1CN(C(=O)OC2CC3(C2)CN(Cc2ccccc2)C3)CCN1c1ncc(C(F)(F)F)cn1 [Compound 123, 2-benzyl-2-azaspiro[3.3]heptan-6-yl (3S)-3-methyl-4-[5-(trifluoromethyl)pyrimidin-2-yl]piperazine-1-carboxylate]
10 to 100 nM	C[C@@H]1CN(c2ncc(F)cn2)C[C@H](C)N1C(=O)OC1CC2(C1)CN(Cc1ccc(F)cc1)C2 [Compound 468, 2-[(4-fluorophenyl)methyl]-2-azaspiro[3.3]heptan-6-yl (2R,6S)-4-(5-fluoropyrimidin-2-yl)-2,6-dimethylpiperazine-1-carboxylate]
< 10 nM	C[C@@H]1CN(c2ncc(C(F)(F)F)cn2)C[C@@H](C)N1C(=O)OC1CC2(C1)CN(Cc1ccccc1)C2 [Compound 139, 2-Benzyl-2-azaspiro[3.3]heptan-6-yl (2R,6R)-2,6-dimethyl-4-[5-(trifluoromethyl)pyrimidin-2-yl]piperazine-1-carboxylate]
100 to 1000 nM	C[C@@H]1CN(c2ncc(C(F)(F)F)cn2)C[C@H](C)N1C(=O)NC1CC2(C1)CN(CCCCc1ccccc1)C2 [Compound 312, (2R,6S)-2,6-dimethyl-N-[2-(4-phenylbutyl)-2-azaspiro[3.3]heptan-6-yl]-4-[5-(trifluoromethyl)pyrimidin-2-yl]piperazine-1-carboxamide]
< 10 nM	C[C@@H]1CN(c2cnc(OC(F)(F)F)cn2)C[C@@H](C)N1C(=O)OC1CC2(C1)CN(Cc1ccccc1)C2 [Compound 203, 2-benzyl-2-azaspiro[3.3]heptan-6-yl (2R,6R)-2,6-dimethyl-4-[5-(trifluoromethoxy)pyrazin-2-yl]piperazine-1-carboxylate]
10 to 100 nM	C[C@@H]1CN(c2ncc(C(F)(F)F)cn2)[C@H](C)CN1C(=O)OC1CC2(C1)CN(Cc1ccccc1)C2 [Compound 135, 2-benzyl-2-azaspiro[3.3]heptan-6-yl (2R,5R)-2,5-dimethyl-4-[5-(trifluoromethyl)pyrimidin-2-yl]piperazine-1-carboxylate]
< 10 nM	C[C@@H]1CN(c2nc3ccc(C(F)(F)F)cc3s2)C[C@H](C)N1C(=O)OC1CC2(C1)CN(Cc1ccccc1)C2 [Compound 364, 2-benzyl-2-azaspiro[3.3]heptan-6-yl (2R,6S)-2,6-dimethyl-4-[6-(trifluoromethyl)-1,3-benzothiazol-2-yl]piperazine-1-carboxylate]
10 to 100 nM	C[C@@H]1CN(c2ncc(C(F)F)cn2)C[C@H](C)N1C(=O)OC1CC2(C1)CN(Cc1ccccc1)C2 [Compound 464, 2-benzyl-2-azaspiro[3.3]heptan-6-yl (2R,6S)-4-[5-(difluoromethyl)pyrimidin-2-yl]-2,6-dimethylpiperazine-1-carboxylate]
100 to 1000 nM	C[C@@H]1CN(c2cnc(C(F)(F)F)cn2)C[C@H](C)N1C(=O)OC1(C(F)F)CC2(CN(Cc3ccccc3)C2)C1 [Compound 342, 2-benzyl-6-(difluoromethyl)-2-azaspiro[3.3]heptan-6-yl (2R,6S)-2,6-dimethyl-4-[5-(trifluoromethyl)pyrazin-2-yl]piperazine-1-carboxylate]
10 to 100 nM	C[C@@H]1CN(c2ncc(C(F)(F)F)cn2)C[C@@H](C)N1C(=O)NC1CC2(C1)CN(Cc1ccc(Cl)cc1)C2 [Compound 255, (2R,6R)-N-{2-[(4-chlorophenyl)methyl]-2-azaspiro[3.3]heptan-6-yl}-2,6-dimethyl-4-[5-(trifluoromethyl)pyrimidin-2-yl]piperazine-1-carboxamide]
< 10 nM	C[C@@H]1CN(c2ccc(C(F)(F)F)cc2)C[C@H](C)N1C(=O)OC1CC2(C1)CN(Cc1ccccc1)C2 [Compound 514, 2-benzyl-2-azaspiro[3.3]heptan-6-yl (2R,6S)-2,6-dimethyl-4-[4-(trifluoromethyl)phenyl]pipera-zine-1-carboxylate]
100 to 1000 nM	C[C@@H]1CN(c2ncc(C(=O)N(C)C)cn2)C[C@H](C)N1C(=O)OC1CC2(C1)CN(Cc1ccccc1)C2 [Compound 489, 2-benzyl-2-azaspiro[3.3]heptan-6-yl (2R,6S)-4-[5-(dimethylcarbamoyl)pyimidin-2-yl]-2,6-dimethylpiperazine-1-carboxylate]
10 to 100 nM	C[C@@H]1CN(c2cnc(C(F)(F)F)cn2)CCN1C(=O)NC1CC2(C1)CN(Cc1ccc(F)cc1)C2 [Compound 270, (2R)-N-{2-[(4-fluorophenyl)methyl]-2-azaspiro[3.3]heptan-6-yl}-2-methyl-4-[5-(trifluoromethyl)pyrazin-2-yl]piperazine-1-carboxamide]
100 to 1000 nM	COC(=O)c1ccc(CN2CC3(CC(NC(=O)N4[C@H](C)CN(c5ncc(C(F)(F)F)cn5)C[C@@H]4C)C3)C2)cc1 [Compound 320, methyl 4-[(6-{[(2R,6S)-2,6-dimethyl-4-[5-(trifluoromethyl)pyrimidin-2-yl]piperazine-1-carbonyl]amino}-2-azaspiro[3.3]heptan-2-yl)methyl]benzoate]
10 to 100 nM	C[C@@H]1CN(c2cnc(C(F)(F)F)cn2)[C@@H](C)CN1C(=O)OC1CC2(C1)CN(Cc1ccc(Cl)cc1)C2 [Compound 480, 2-[(4-chlorophenyl)methyl]-2-azaspiro[3.3]heptan-6-yl (2R,5S)-2,5-dimethyl-4-[5-(trifluoromethyl)pyrazin-2-yl]piperazine-1-carboxylate]
10 to 100 nM	Cc1cc(N2C[C@@H](C)N(C(=O)OC3CC4(C3)CN(Cc3ccccc3)C4)[C@@H](C)C2)ccc1F [Compound 525, 2-benzyl-2-azaspiro[3.3]heptan-6-yl (2R,6S)-4-(4-fluoro-3-methylphenyl)-2,6-dimethylpiperazine-1-carboxylate]
100 to 1000 nM	C[C@@H]1CN(c2ncc(C(F)(F)F)cn2)CCN1C(=O)OC1CC2(C1)CN(Cc1ccc(Cl)cc1)C2 [Compound 478, 2-[(4-chlorophenyl)methyl]-2-azaspiro[3.3]heptan-6-yl (2R)-2-methyl-4-[5-(trifluoromethyl)pyrimidin-2-yl]piperazine-1-carboxylate]
100 to 1000 nM	C[C@@H]1CN(c2cncc(C(F)(F)F)n2)C[C@@H](C)N1C(=O)OC1CC2(C1)CN(Cc1ccccc1)C2 [Compound 166, 2-benzyl-2-azaspiro[3.3]heptan-6-yl (2R,6R)-2,6-dimethyl-4-[6-(trifluoromethyl)pyrazin-2-yl]piperazine-1-carboxylate]

Source: patent publication US20230129359A1, “MUSCARINIC RECEPTOR 4 ANTAGONISTS AND METHODS OF USE” (Neurocrine Biosciences, Inc., priority 2020, published 2023)
